Data: patent US20260248938A1, “COMBINATION OF ANTI-CDH6 ANTIBODY-DRUG CONJUGATE AND HIF-2alpha INHIBITOR” (DAIICHI SANKYO COMPANY, LIMITED, priority 2023, published 2026)

Assays:
[1] = tested on: Human kidney cancer cell line 786-O cells; type: in vivo; settings: 786-O subcutaneous xenograft, nude mice, ADC (1) 1 mg/kg i.v. on Day 0, belzutifan 0.3 mg/kg orally once daily, five times a week for 3 weeks
Experimental: Mouse: Six-week-old female BALB/c nude mice (The Jackson Laboratory Japan, Inc.) were subjected to an experiment.
Measurement and calculation expression: The long diameter and short diameter of each tumor were measured twice a week using electronic digital calipers (CD-15CX, Mitutoyo Corp.), and the volume of the tumor was then calculated. The following expression was used in the calculation.
The anti-CDH6 antibody-drug conjugate (1) was diluted with ABS buffer (10 mM acetate buffer (pH 5.5), 5% sorbitol), and the dilution was intravenously administered at a dose of 10 mL/kg to the tail of each mouse. Belzutifan was suspended in 10% dimethyl sulfoxide, 40% polyethylene glycol 300, 5% Tween-80, and 45% physiological saline, and the suspension was administered orally at a dose of 10 mL/kg.
Human kidney cancer cell line 786-O cells purchased from ATCC (American Type Culture Collection) were suspended in Matrigel Matrix, and the cell suspension was subcutaneously inoculated at a dose of 4×10^6 cells to the right flank region of each female nude mouse. […]
Tumor growth inhibition (TGI) is calculated according to the following expression.
Change from baseline (%) (percentage change of average tumor volume on Day 21 from an average tumor volume on Day 0 as a baseline) was calculated according to the following expression, and is shown in FIG. 15.

[2] = target: T1, Topoisomerase I (Homo sapiens, UniProt P11387); settings: Ogitani Y. et al., Clinical Cancer Research 2016; cited from earlier work
T1 sequence (P11387 1-765): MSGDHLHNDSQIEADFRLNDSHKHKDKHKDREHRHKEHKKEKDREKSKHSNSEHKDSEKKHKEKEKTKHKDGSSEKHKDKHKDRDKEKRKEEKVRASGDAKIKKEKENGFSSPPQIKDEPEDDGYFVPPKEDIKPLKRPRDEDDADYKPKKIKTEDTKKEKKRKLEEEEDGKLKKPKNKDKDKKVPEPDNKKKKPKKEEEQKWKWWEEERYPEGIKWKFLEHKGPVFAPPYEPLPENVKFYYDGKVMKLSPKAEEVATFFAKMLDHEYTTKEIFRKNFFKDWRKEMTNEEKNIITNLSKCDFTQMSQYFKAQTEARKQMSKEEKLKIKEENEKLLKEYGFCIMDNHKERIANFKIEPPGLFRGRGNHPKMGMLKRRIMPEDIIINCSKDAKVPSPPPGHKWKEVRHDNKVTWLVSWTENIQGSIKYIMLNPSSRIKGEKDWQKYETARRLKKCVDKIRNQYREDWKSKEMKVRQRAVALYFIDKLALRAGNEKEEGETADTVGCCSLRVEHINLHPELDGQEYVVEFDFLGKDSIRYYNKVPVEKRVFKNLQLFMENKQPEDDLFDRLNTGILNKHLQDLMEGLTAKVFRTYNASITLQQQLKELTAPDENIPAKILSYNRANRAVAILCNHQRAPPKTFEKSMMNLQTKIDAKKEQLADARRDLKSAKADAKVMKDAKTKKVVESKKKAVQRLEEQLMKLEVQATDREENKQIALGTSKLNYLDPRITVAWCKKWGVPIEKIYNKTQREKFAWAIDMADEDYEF

Row | SMILES | Tumor growth inhibition (TGI) ([1]; Day 21) [%] | Change from baseline (%) (percentage change of average tumor volume on Day 21 from average tumor volume on Day 0) ([1]; Day 21 vs Day 0) | Topoisomerase I inhibitory effect [2]
1 | CS(=O)(=O)c1ccc(Oc2cc(F)cc(C#N)c2)c2c1[C@H](O)[C@H](F)[C@@H]2F [Belzutifan, belzutifan] | 29 | 53 | 
2 | CC[C@@]1(O)C(=O)OCc2c1cc1n(c2=O)Cc2c-1nc1cc(F)c(C)c3c1c2[C@@H](NC(=O)CO)CC3 [compound (A)] |  |  | confirmed to have a topoisomerase I inhibitory effect
